Results from publication PMC4467461, “Small-molecule activation of SERCA2a SUMOylation for the treatment of heart failure” (Nature Communications, 2015).
“Also recorded” adds a separate entry of the source. Like-named read-outs stand apart in the source and are kept apart here.

What was measured:
[1] = Single-dose pharmacokinetic profile; type: in vivo, mice; details: male, mouse, plasma; for Cmax / half-life: 10 mg/kg
Description: The male mice were received with a small molecule N106 at 10 mg kg^−1 intravenously and 10 mg kg^−1 orally (PO). The bloods were corrected at 30 min, 1, 2 and 4 h after administration intravenously and at 30 min, 1, 2 and 4 h after treatment for oral administration studies. Plasma samples from these studies were extracted by plasma separator tube containing lithium heparin (BD Microcontainer, NJ, USA). Plasma concentrations of N106 were determined by HPLC analysis and pharmacokinetic parameters. Three mice for each time point were used.
Supplementary Figure 13. Pharmacokinetic profile of N106 following administration to mice. The murine PK profile of single dose of N106 (10 mg.kg-1) was determined following intravenously (IV) and oral (PO) administration and analysis of plasma samples was performed by high performance liquid chromatography. Data represents mean value of N106 plasma concentrations in mice. n = 3 mice per each time point. Cmax, maximum concentration; T ½, half time; Tmax, time to peak concentration.

SERCA2a SUMOylation = assay: Endogenous SERCA2a SUMOylation, SUMO-1 conjugates and Ubc9 in cardiomyocytes (immunoprecipitation / western blot); type: cell-based, Sprague–Dawley rats
Description: Figure 1 N106 increases SERCA2a’s cellular activity and SUMOylation in adult cardiomyocytes. In-vitro characterization of activators of SERCA2a SUMOylation. Cell-based screening of small molecules identified one promising compound. Adult ventricular cardiomyocytes were isolated from Sprague–Dawley rats and treated with small molecules on dose-dependent manner for 24 h. DMSO-treated cardiomyocytes were used as a negative control. (a) Chemical structure of SERCA2a SUMOylation activator. N106, N-(4-methoxybenzo[d]thiazol-2-yl)-5-(4-methoxyphenyl)-1,3,4-oxadiazol-2-amine. (b-g) The effects of N106 compound in cardiomyocyte contractility and calcium transient. The dose-dependent effects of N106 compound presented on peak shortening, the time to maximal departure velocity, the time to maximal return velocity, calcium ratio, decay time constant (τ) and the time to 90% baseline (t90) fluorescence in cardiomyocytes were assessed using a video-based edge-detection system (IonOptix Inc.). n=25 cardiomyocytes from each three of hearts per condition. (h) The effects of N106 compound on the ATPase activity of SERCA2a. The ATPase activity were measured at 25 °C in 50 mM MOPS, 100 mM KCl, 5 mM MgCl2, 1 mM […] at pCa 5.0 by using a coupled enzyme system consisting of pyruvate kinase and lactate dehydrogenase, and monitoring the oxidation of the reduced form of NADH at […]. The enzyme activity was determined by using same set of cardiomyocytes. (i) The effect of N106 compound for the formation of SUMOylated SERCA2a was determined using the same set of cardiomyocytes. Endogenous SERCA2a SUMOylation was detected by immunoprecipitation with anti-SERCA2a and then western blotting with anti-SUMO-1 antibodies. The experiments shown are representative of three independent experiments with similar results. (j) The effect of N106 compound on global SUMOylation was measured by western blot analysis with an anti-SUMO-1 antibody in the same set of cardiomyocytes. The experiments shown are representative of three independent western blottings. Data are represented as mean±s.e.m. (n=3 mice hearts per each condition). Data are represented as mean±s.e.m. *P≤0.05; **P<0.001 (Student’s t-test) from DMSO control.
Protein extracts (20∼50 μg) were obtained from isolated cardiomyocytes, which was lysed in RIPA buffer (R&D Systems Inc., MN, USA) contained protease inhibitors (Complete mini, Roche Diagnostics, IN, USA) and 20 mM NEM (Sigma-Aldrich). For SERCA2a SUMOylation assays, cardiac protein extracts were immunoprecipitated with a SUMO-1 agarose resin (Santa Cruz Biotechnology Inc., CA, USA) for overnight at 4 °C. The resins were washed with cold lysis buffer three times. The immunocomplexes were then resolved by SDS–PAGE and western blot analysis was performed using a SERCA2a-specific antibody. […]
treated with small molecules were determined: peak shortening (b) and calcium transient (c). […]

## COc1ccc(-c2nnc(Nc3nc4c(OC)cccc4s3)o2)cc1 [Compound N106, N-(4-methoxybenzo[d]thiazol-2-yl)-5-(4-methoxyphenyl)-1,3,4-oxadiazol-2-amine]
[1]; iv, mice, 10 mg kg^−1 intravenous
  Cmax: 2240 nM
[1]; iv, mice, 10 mg kg^−1 intravenous, read-out: half-life
  half-life: 65.4 min
[1]; oral, 10 mg kg^−1, mice, 10 mg kg^−1 PO vs IV, read-out: oral bioavailability (F%)
  bioavailability: 56%
[1]; po, mice, 10 mg kg^−1 oral
  Cmax: 457 nM
[1]; po, mice, 10 mg kg^−1 oral, read-out: terminal elimination half-life (t1/2)
  half-life: 19 min
[1]; mice, 10 mg kg^−1 oral
  Tmax: 30 min
SERCA2a SUMOylation; 10 μM, 24 h
  endogenous SERCA2a SUMOylation: enhancement of endogenous SERCA2a SUMOylation; also recorded: significantly induced
  protein levels of E2 conjugation enzyme, Ubc9: without upregulation of Ubc9
SERCA2a SUMOylation; 10 μM, 10∼30 min, sustained at 24 h
  SERCA2a SUMOylation, time course: increased
SERCA2a SUMOylation; in response to the concentration of N106, 24 h
  whole SUMO-1 conjugates: increased
SERCA2a SUMOylation; increasing N106 concentration, 24 h
  levels of SERCA2a SUMOylation: increased
